{
  "source": "ChEMBL document CHEMBL4184329",
  "about": "“Identification and Structure-Activity Relationship of HDAC6 Zinc-Finger Ubiquitin Binding Domain Inhibitors” (J Med Chem, 2018)",
  "data": [
    {"target": "T1, Protein deacetylase HDAC6 (Homo sapiens, UniProt Q9UBN7)", "T1 sequence (Q9UBN7 whole entry)": "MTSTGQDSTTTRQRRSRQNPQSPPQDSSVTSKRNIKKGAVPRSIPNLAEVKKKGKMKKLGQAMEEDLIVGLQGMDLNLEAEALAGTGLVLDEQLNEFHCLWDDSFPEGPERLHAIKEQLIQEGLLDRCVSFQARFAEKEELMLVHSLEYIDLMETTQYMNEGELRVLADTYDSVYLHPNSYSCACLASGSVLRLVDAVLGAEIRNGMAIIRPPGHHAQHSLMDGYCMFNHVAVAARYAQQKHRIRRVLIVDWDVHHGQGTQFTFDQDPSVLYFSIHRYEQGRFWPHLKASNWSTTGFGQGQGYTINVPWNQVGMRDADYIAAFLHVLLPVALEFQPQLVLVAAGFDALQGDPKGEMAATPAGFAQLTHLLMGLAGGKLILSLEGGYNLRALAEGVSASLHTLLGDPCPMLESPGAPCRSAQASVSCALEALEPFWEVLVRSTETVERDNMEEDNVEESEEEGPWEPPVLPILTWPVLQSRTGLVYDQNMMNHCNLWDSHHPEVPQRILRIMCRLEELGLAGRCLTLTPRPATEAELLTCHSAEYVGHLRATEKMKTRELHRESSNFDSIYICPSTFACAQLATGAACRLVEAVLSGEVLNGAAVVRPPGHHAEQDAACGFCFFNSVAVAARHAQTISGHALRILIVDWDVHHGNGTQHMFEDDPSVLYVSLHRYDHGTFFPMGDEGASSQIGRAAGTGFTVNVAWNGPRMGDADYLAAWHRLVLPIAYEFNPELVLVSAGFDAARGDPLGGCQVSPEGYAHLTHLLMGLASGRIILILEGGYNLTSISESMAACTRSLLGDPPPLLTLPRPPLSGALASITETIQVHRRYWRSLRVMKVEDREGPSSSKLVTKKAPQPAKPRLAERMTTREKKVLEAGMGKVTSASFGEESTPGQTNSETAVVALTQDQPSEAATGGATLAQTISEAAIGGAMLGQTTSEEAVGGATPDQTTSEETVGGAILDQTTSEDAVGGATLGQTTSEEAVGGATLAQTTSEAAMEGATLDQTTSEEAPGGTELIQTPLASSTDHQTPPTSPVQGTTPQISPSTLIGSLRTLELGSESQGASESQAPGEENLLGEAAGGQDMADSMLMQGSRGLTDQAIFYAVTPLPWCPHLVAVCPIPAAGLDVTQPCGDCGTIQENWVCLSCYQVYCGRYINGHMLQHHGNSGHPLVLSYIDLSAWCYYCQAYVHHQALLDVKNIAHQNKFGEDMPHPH", "assay": "Binding affinity to biotinylated HDAC6 ZnF-UBD (unknown origin) by surface plasmon resonance method", "conditions": "not given; call rule not given here", "units": {"Kd": "µM"}, "values": [
      {"smiles": "O=C(O)CCc1nc2cc3nc(CCC(=O)O)sc3cc2s1", "Kd": 8}
    ]},
    {"target": "T1, Protein deacetylase HDAC6", "assay": "(§1) Displacement of N-terminal FITC-labeled RLRGG from N-terminal AviTag/C-terminal His6-tagged HDAC6 ZnF-UBD (unknown origin) expressed in Escherichia coli BL21 (DE3) after 10 mins by fluorescence polarization assay", "conditions": "not given", "values": [
      {"smiles": "COC(=O)CCc1nc2ccccc2nc1OC", "IC50": "Not Active"},
      {"smiles": "O=C(O)CCCc1nc2ccccc2s1", "IC50": "Not Active"},
      {"smiles": "CN(C(=O)Cn1c(CS(C)(=O)=O)nc2ccccc21)c1ccccc1", "IC50": "Not Active"},
      {"smiles": "COc1nccnc1CCC(=O)O", "IC50": "Not Active"},
      {"smiles": "COC(CC(=O)O)c1nc2ccccc2s1", "note": "(stereo unspecified)", "IC50": "Not Active"},
      {"smiles": "COc1nc2ccccc2nc1CCC(N)=O", "IC50": "Not Active"},
      {"smiles": "O=C(O)CCc1nc2ccccc2o1", "IC50": "Not Active"},
      {"smiles": "CS(=O)(=O)Cc1nc2ccccc2n1CC(=O)Nc1cccc(NC(N)=O)c1", "IC50": "Not Active"},
      {"smiles": "O=C(O)C(O)C(O)c1nc2ccccc2s1", "note": "(stereo unspecified)", "IC50": "Not Active"},
      {"smiles": "CC(Cc1nc2ccccc2s1)C(=O)O", "note": "(stereo unspecified)", "IC50": "Not Active"},
      {"smiles": "CNC(=O)CCc1nc2ccccc2nc1OC", "IC50": "Not Active"},
      {"smiles": "O=C(O)Cc1ccc2ccccc2n1", "IC50": "Not Active"},
      {"smiles": "COC(Cc1nc2ccccc2s1)C(=O)O", "note": "(stereo unspecified)", "IC50": "Not Active"},
      {"smiles": "O=C(O)CCc1cc2ccccc2o1", "IC50": "Not Active"},
      {"smiles": "O=C(O)CCc1nc2ccccc2[nH]1", "note": "[PROCODAZOLE]", "IC50": "Not Active"}
    ]},
    {"target": "T1, Protein deacetylase HDAC6", "assay": "as §1", "conditions": "read-out: IC50", "units": {"IC50": "µM"}, "values": [
      {"smiles": "COc1nc2ccccc2nc1CCC(=O)O", "IC50": 45},
      {"smiles": "O=C(O)Cn1cnc2ccccc2c1=O", "IC50": 320},
      {"smiles": "O=C(O)CCc1nc2cc(Cl)ccc2n(Cc2ccccc2)c1=O", "IC50": 150},
      {"smiles": "O=C(O)Cn1cnc2c(oc3ccccc32)c1=O", "IC50": 51},
      {"smiles": "O=C(O)CCc1nc(O)c2ccccc2n1", "IC50": 230},
      {"smiles": "O=C(O)Cn1cnc2ccc(Br)cc2c1=O", "IC50": 200},
      {"smiles": "Cn1c(=O)c(CCC(=O)O)nc2ccccc21", "IC50": 65},
      {"smiles": "O=C(O)CCc1nc2ccccc2s1", "IC50": 180},
      {"smiles": "Cn1c(CCC(=O)O)nc2ccccc21", "IC50": 100},
      {"smiles": "O=C(O)CCc1nc2ccccc2c2nc(=O)c(Cc3ccccc3)nn12", "IC50": 25},
      {"smiles": "O=C(O)Cn1nc(O)c2ccccc2c1=O", "IC50": 200},
      {"smiles": "COc1cc2ncn(CCC(=O)O)c(=O)c2cc1OC", "IC50": 95},
      {"smiles": "O=C(O)CCn1nnc2ccccc2c1=O", "IC50": 240},
      {"smiles": "Cc1cc(C)c2c(n1)sc1c(=O)n(CC(=O)O)cnc12", "IC50": 190},
      {"smiles": "O=C(O)Cc1nc2ccccc2s1", "IC50": 390},
      {"smiles": "NC(=O)c1cc(-n2c(CCC(=O)O)nc3ccccc32)cs1", "IC50": 640},
      {"smiles": "N#Cc1c2n(c3c(=O)n(CC(=O)O)cnc13)CCCC2", "IC50": 77},
      {"smiles": "O=C(O)CCc1nc2cc3nc(CCC(=O)O)sc3cc2s1", "IC50": 5.1},
      {"smiles": "O=C(O)CCc1ccc2ccccc2n1", "IC50": "> 720"},
      {"smiles": "COc1cc2ncn(CC(=O)O)c(=O)c2cc1OC", "IC50": 44}
    ]}
  ]
}
